Assay results as given in US20200368315A1, “ANTIMICROBIAL PEPTIDES AND ADMIXTURES THEREOF SHOWING ANTIMICROBIAL ACTIVITY AGAINST GRAM-NEGATIVE PATHOGENS” (priority 2017, published 2020).
Converted amounts (≈) assume the structure as drawn. “And” between values parts separate entries of the source, which are not always exact repeats. Equal entries are not always repeated.

How the values were obtained:
E. coli LMG15862 = assay type: cell-based, Escherichia coli; details: nisin + GNP
Procedure, shortened: (§1)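 Chequerboard broth microdilution in MHB: nisin two-fold serially diluted along one axis and GNPs along the other, each starting at its own MIC. Fresh bacterial suspension added; FIC index calculated as MICac/MICa + MICbc/MICb, with FICI ≤0.5 read as synergy.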

K. pneumoniae LMG20218 = assay type: cell-based, Klebsiella pneumoniae; details: nisin + GNP
Procedure, shortened: as §1

E. aerogenes LMG 02094 = assay type: cell-based, Enterobacter aerogenes; details: nisin + GNP
Procedure, shortened: as §1

[1] = Cell viability (ATP levels, CellTiter-Glo); details: human
L. lactis MG1363 = assay: microbe, parasite or virus in culture; details: Lactococcus lactis, MG1363, read-out: MIC value of antimicrobial compounds alone

Structure (SMILES)	FICI (E. coli LMG15862)	FICI (K. pneumoniae LMG20218)	FICI (E. aerogenes LMG 02094)	IC50 [1]	MIC (L. lactis MG1363) [µM]
CC[C@@H](C)[C@@H](NC(=O)[C@@H](CCCNC(=N)N)NC(=O)[C@@H](CCCNC(=N)N)NC(=O)[C@@H](Cc1ccccc1)NC(=O)[C@@H](CC(C)C)NC(=O)[C@@H](CCCNC(=N)N)NC(=O)[C@H](N)CCCNC(=N)N)C(=O)N[C@H](CC(C)C)C(=O)N[C@H](CCCNC(=N)N)C(=O)N[C@H](Cc1c[nH]c2ccccc12)C(=O)N[C@H](CC(C)C)C(N)=O [GNP-D6]	0.375	0.375	0.375	–	–
CN[C@H](CC(C)C)C(=O)N[C@H]1C(=O)N[C@@H](CC(N)=O)C(=O)N[C@H]2C(=O)N[C@H]3C(=O)N[C@H](C(=O)N[C@H](C(=O)O)c4cc(O)cc(O)c4-c4cc3ccc4O)[C@H](O)c3ccc(c(Cl)c3)Oc3cc2cc(c3O[C@@H]2O[C@H](CO)[C@@H](O)[C@H](O)[C@H]2O[C@H]2C[C@](C)(N)[C@H](O)[C@H](C)O2)Oc2ccc(cc2Cl)[C@H]1O [Vancomycin, reference compound]	–	–	–	> 44.2 µM and > 64 µg/mL	0.125 (≈ 0.181 µg/mL)
